Measured values from US8269000B2, “Substituted pyrimidine and triazine compounds” (Gruenenthal GmbH, priority 2008, dated 2012).

Target: T1, rat B1R (Rattus norvegicus, UniProt P97583)
T1 construct: expressed in transfected cells; host or cells: CHO K1 cells
T1 sequence (P97583 1-337): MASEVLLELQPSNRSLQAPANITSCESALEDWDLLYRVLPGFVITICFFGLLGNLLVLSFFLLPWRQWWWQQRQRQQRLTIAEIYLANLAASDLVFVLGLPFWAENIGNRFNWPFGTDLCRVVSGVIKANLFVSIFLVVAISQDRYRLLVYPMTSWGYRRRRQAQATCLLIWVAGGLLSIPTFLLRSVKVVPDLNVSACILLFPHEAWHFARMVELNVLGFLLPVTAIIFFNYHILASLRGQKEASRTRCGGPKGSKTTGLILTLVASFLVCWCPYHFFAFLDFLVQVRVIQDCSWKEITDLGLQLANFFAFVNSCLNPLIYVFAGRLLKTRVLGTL
Assay: FLIPR Ca2+ functional study on bradykinin receptor 1 (rB1R CHO K1 cells)
Type: cell-based
Conditions: % inhibition rat B1R at 10 μM
In short: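 Antagonism was calculated as % of maximal inhibition of the Ca2+ rise triggered by agonist at EC80 (Lys-Des-Arg9-bradykinin for hB1R, Des-Arg9-bradykinin for rB1R), added 10-20 min after test compound (10 μM or serial dilutions for IC50) to Fluo-4-loaded transfected CHO K1 cells on FLIPR. Duplicates or triplicates, ≥2 independent runs.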

Compound	% inh. (rat B1R) 10 μM [%]
COc1cc(C)c(S(=O)(=O)N2CCCCC2COc2ccnc(N3CCN(c4ncccn4)CC3)n2)c(C)c1 (stereo not drawn) [H_CC-004, 4-[[1-(4-methoxy-2,6-dimethylphenyl)sulfonyl-2-pipendinyl]methoxy]-2-[4-(2-pyrimidinyl)-1-piperazinyl]pyrimidine]	57
COc1cc(C)c(S(=O)(=O)N2CCCCC2COc2ccnc(N3CCN(c4ccncc4)CC3)n2)c(C)c1 (stereo not drawn) [H_CC-005, 4-[[1-(4-methoxy-2,6-dimethylphenyl)sulfonyl-2-pipendinyl]methoxy]-2-[4-(4-pyridyl)-1-piperazinyl]pyrimidine]	94
COc1cc(C)c(S(=O)(=O)N2CCCCC2COc2ccnc(N3CCN(CC4CCN(C)CC4)CC3)n2)c(C)c1 (stereo not drawn) [H_CC-006, 4-[[1-(4-methoxy-2,6-dimethylphenyl)sulfonyl-2-pipendinyl]methoxy]-2-[4-[(1-methyl-4-pipendinyl)methyl]-1-piperazinyl]pyrimidine]	61
COc1cc(C)c(S(=O)(=O)N2CCC[C@H]2COc2ccnc(N3CCN(CC4CCN(C)CC4)CC3)n2)c(C)c1 [H_CC-012, 4-[[(2S)-1-(4-methoxy-2,6-dimethylphenyl)sulfonyl-2-pyrrolidinyl]methoxy]-2-[4-[(1-methyl-4-pipendinyl)methyl]-1-piperazinyl]pyrimidine]	93
COc1cc(C)c(S(=O)(=O)N2c3ccccc3C[C@H]2COc2ccnc(N3CCC(CCN4CCCC4)CC3)n2)c(C)c1 [H_CC-017, (2S)-1-(4-methoxy-2,6-dimethylphenyl)sulfonyl-2-[[2-[4-(2-1-pyrrolidinylethyl)-1-pipendinyl]-4-pyrimidinyl]oxymethyl]indoline]	93
COc1cc(C)c(S(=O)(=O)N2c3ccccc3C[C@H]2COc2ccnc(N3CCC(N4CCN(C)CC4)CC3)n2)c(C)c1 [H_CC-018, (2S)-1-(4-methoxy-2,6-dimethylphenyl)sulfonyl-2-[[2-[4-(4-methyl-1-piperazinyl)-1-pipendinyl]-4-pyrimidinyl]oxymethyl]indoline]	91
COc1cc(C)c(S(=O)(=O)N2c3ccccc3C[C@H]2COc2ccnc(N3CCN(CC4CCN(C)CC4)CC3)n2)c(C)c1 [H_CC-020, (2S)-1-(4-methoxy-2,6-dimethylphenyl)sulfonyl-2-[[2-[4-[(1-methyl-4-pipendinyl)methyl]-1-piperazinyl]-4-pyrimidinyl]oxymethyl]indoline]	93

More lines, now with the values ahead:

% inh. (rat B1R) 10 μM [%]	Compound
77	COc1cc(C)c(S(=O)(=O)N2CCCCC2COc2ccnc(N3CCC(CCN4CCCCC4)CC3)n2)c(C)c1 (stereo not drawn) [H_CC-022]
97	COc1cc(C)c(S(=O)(=O)N2CCC[C@H]2COc2ccnc(N3CCC4(CC3)C(=O)NCN4c3ccccc3)n2)c(C)c1 [H_CC-024, 8-[4-[[(2S)-1-(4-methoxy-2,6-dimethylphenyl)sulfonyl-2-pyrrlidinyl]methoxy]-2-pyrimidinyl]-4-phenyl-2,4,8-triazaspiro[4.5]decan-1-one]
65	COc1cc(C)c(S(=O)(=O)N2CCC[C@H]2COc2ccnc(N3CCN(C4CCN(C)CC4)CC3)n2)c(C)c1 [H_CC-025, 4-[[(2S)-1-(4-methoxy-2,6-dimethylphenyl)sulfonyl-2-pyrrlidinyl]methoxy]-2-[4-(1-methyl-4-piperidinyl)-1-piperazinyl]pyrimidine]
75	COc1cc(C)c(S(=O)(=O)N2CCC[C@H]2COc2ccnc(N3CCC(CCN4CCCCC4)CC3)n2)c(C)c1 [H_CC-026, 4-[[(2S)-1-(4-methoxy-2,6-dimethylphenyl)sulfonyl-2-pyrrlidinyl]methoxy]-2-[4-[2-(1-piperidyl)ethyl]-1-piperidinyl]pyrimidine]

Same assay, conditions: CHO-K1, % inhibition rat B1R at 10 μM, read-out: % inh. (rat B1R) 10 μM

Compound	inhibition at 10 µM [%]
COc1cc(C)c(S(=O)(=O)N2CCCCC2COc2ccnc(N3CCC(O)(c4cccnc4)CC3)n2)c(C)c1 (stereo not drawn) [H_CC-007, 1-[4-[[1-(4-methoxy-2,6-dimethylphenyl)sulfonyl-2-piperidinyl]methoxy]-2-pyrimidinyl]-4-(3-pyridyl)-4-piperidinol]	71
COc1cc(C)c(S(=O)(=O)N2CCC[C@H]2COc2ccnc(N3CCN(C)CC3)n2)c(C)c1 [H_CC-008, 4-[[(2S)-1-(4-methoxy-2,6-dimethylphenyl)sulfonyl-2-pyrrolidinyl]methoxy]-2-(4-methyl-1-piperazinyl)pyrimidine]	95
COc1cc(C)c(S(=O)(=O)N2CCC[C@H]2COc2ccnc(N3CCC(CCN4CCCC4)CC3)n2)c(C)c1 [H_CC-009, 4-[[(2S)-1-(4-methoxy-2,6-dimethylphenyl)sulfonyl-2-pyrrolidinyl]methoxy]-2-[4-(2-1-pyrrolidinylethyl)-1-piperidinyl]pyrimidine]	85
COc1cc(C)c(S(=O)(=O)N2CCC[C@H]2COc2ccnc(N3CCC(N4CCN(C)CC4)CC3)n2)c(C)c1 [H_CC-010, 4-[[(2S)-1-(4-methoxy-2,6-dimethylphenyl)sulfonyl-2-pyrrolidinyl]methoxy]-2-[4-(4-methyl-1-piperazinyl)-1-piperidinyl]pyrimidine]	100
COc1cc(C)c(S(=O)(=O)N2CCC[C@H]2COc2ccnc(N3CCN(c4ncccn4)CC3)n2)c(C)c1 [H_CC-011, 4-[[(2S)-1-(4-methoxy-2,6-dimethylphenyl)sulfonyl-2-pyrrolidinyl]methoxy]-2-[4-(2-pyrimidinyl)-1-piperazinyl]pyrimidine]	56
COc1cc(C)c(S(=O)(=O)N2CCC[C@H]2COc2ccnc(N3CCC(O)(c4cccnc4)CC3)n2)c(C)c1 [H_CC-013, 1-[4-[[(2S)-1-(4-methoxy-2,6-dimethylphenyl)sulfonyl-2-pyrrolidinyl]methoxy]-2-pyrimidinyl]-4-(3-pyridyl)-4-piperidinol]	79
COc1cc(C)c(S(=O)(=O)N2CC(Oc3ccnc(N4CCC(CCN5CCCC5)CC4)n3)C2)c(C)c1 [H_CC-014, 4-[[1-(4-methoxy-2,6-dimethylphenyl)sulfonyl-3-azetidinyl]oxy]-2-[4-(2-1-pyrrolidinylethyl)-1-piperidinyl]pyrimidine]	53
COc1cc(C)c(S(=O)(=O)N2CC(Oc3ccnc(N4CCC(N5CCN(C)CC5)CC4)n3)C2)c(C)c1 [H_CC-015, 4-[[1-(4-methoxy-2,6-dimethylphenyl)sulfonyl-3-azetidinyl]oxy]-2-[4-(4-methyl-1-piperazinyl)-1-piperidinyl]pyrimidine]	56
COc1cc(C)c(S(=O)(=O)N2c3ccccc3C[C@H]2COc2ccnc(N3CCN(C)CC3)n2)c(C)c1 [H_CC-016, (2S)-1-(4-methoxy-2,6-dimethylphenyl)sulfonyl-2-[[2-(4-methyl-1-piperazinyl)-4-pyrimidinyl]oxymethyl]indoline]	67
COc1cc(C)c(S(=O)(=O)N2c3ccccc3C[C@H]2COc2ccnc(N3CCN(c4ccncc4)CC3)n2)c(C)c1 [H_CC-019, (2S)-1-(4-methoxy-2,6-dimethylphenyl)sulfonyl-2-[[2-[4-(4-pyridyl)-1-piperazinyl]-4-pyrimidinyl]oxymethyl]indoline]	98
COc1cc(C)c(S(=O)(=O)N2CCCCC2COc2ccnc(N3CCC4(CCN(Cc5ccccc5)C4)C3)n2)c(C)c1 (stereo not drawn) [H_CC-021, 3-benzyl-7-[4-[[1-(4-methoxy-2,6-dimethylphenyl)sulfonyl-2-piperidinyl]methoxy]-2-pyrimidinyl]-3,7-diazaspiro[4.4]nonane]	62

Further lines, results first:

inhibition at 10 µM [%]	Compound
76	COc1cc(C)c(S(=O)(=O)N2CCC[C@H]2COc2ccnc(N3CCC4(CCN(Cc5ccccc5)C4)C3)n2)c(C)c1 (stereo partly drawn) [H_CC-023, 3-benzyl-7-[4-[[(2S)-1-(4-methoxy-2,6-dimethylphenyl)sulfonyl-2-pyrrolidinyl]methoxy]-2-pyrimidinyl]-3,7-diazaspiro[4.4]nonane]
91	COc1cc(C)c(S(=O)(=O)N2c3ccccc3C[C@H]2COc2ccnc(N3CCN(C4CCN(C)CC4)CC3)n2)c(C)c1 [H_CC-027, (2S)-1-(4-methoxy-2,6-dimethylphenyl)sulfonyl-2-[[2-[4-(1-methyl-4-piperidinyl)-1-piperazinyl]-4-pyrimidinyl]oxymethyl]indoline]
83	COc1cc(C)c(S(=O)(=O)N2c3ccccc3C[C@H]2COc2ccnc(N3CCC(CCN4CCCCC4)CC3)n2)c(C)c1 [H_CC-028, (2S)-1-(4-methoxy-2,6-dimethylphenyl)sulfonyl-2-[[2-[4-[2-(1-piperidyl)ethyl]-1-piperidinyl]-4-pyrimidinyl]oxymethyl]indoline]
49	COc1cc(C)c(S(=O)(=O)N2CCCCC2COc2ccnc(N3CCC4(CCN(Cc5ccc(F)cc5)C4=O)CC3)n2)c(C)c1 (stereo not drawn) [H_CC-030, 3-[(4-fluorophenyl)methyl]-8-[4-[[1-(4-methoxy-2,6-dimethylphenyl)sulfonyl-2-piperidinyl]methoxy]-2-pyrimidinyl]-3,8-diazaspiro[4.5]decan-4-one]
56	COc1cc(C)c(S(=O)(=O)N2CCCCC2COc2ccnc(N3CCC(CNC(=O)c4ccncc4)(N4CCN(C)CC4)CC3)n2)c(C)c1 (stereo not drawn) [H_CC-031, N-[[1-[4-[[1-(4-methoxy-2,6-dimethylphenyl)sulfonyl-2-piperidinyl]methoxy]-2-pyrimidinyl]-4-(4-methyl-1-piperazinyl)-4-piperidinyl]methyl]-4-pyridinecarboxamide]
